The nature of data set [1]: Particle size distribution, microscopic method (Japanese Pharmacopoeia). It counts as physicochemical. The settings on record: for 50% Particle Size: resins of Examples 1-7 and reference, method of Example 9. On the procedure:
The particle size of the endotoxin-adsorbent was determined based on the particle size distribution method. The particle distribution analysis was performed according to “The method for determining particle size distribution. Method 1: Microscopic method” in the second supplement of the general test procedures, section 65, Japanese Pharmacopoeia, 13th Issue. The 50% particle size (μm) was explained as the diameter of particles of the corresponding values of the accumulative volume of particles is 50%.
The particle size distribution was measured according to “Measurement of Particle Size Distribution. Method 1: Microscopic method” in the second supplement of the general test procedures, Section 65, Japanese Pharmacopoeia, 13th Issue. The microscope and camera used for this experiment was Nikon ECLIPSE E600 and Victor KY-F55B, respectively. The collected data was analyzed using Nano Hunter NS2K-Pro. The 50% particle size of RPMB was 213 μm, and the content of small particles not more than 5 μm in a diameter was 0%.

A short description of data set [2]: Endotoxin adsorption and elimination capacity (2), LPS-binding capacity from OD210 of supernatant. Also on record: species or system E. coli O-111. The settings on record: for Endotoxin-Binding capacity (LP5 mg/g*): converted to dry weight of LPS per gram resin; for Endotoxin-Binding Capacity: per gram resin, method of Example 11. On the procedure:
The LPS binding capacity of the endotoxin-adsorbent in a test tube was determined according to the method described in “endotoxin test procedures” in Japanese Pharmacopoeia, in addition to a simple assay method of LPS by measuring OD values, which was developed during this invention. The experimental procedures and results are shown in EXAMPLE 10 and 11 in detail.
The endotoxin-binding capacity of polymixin B conjugates was also studied. LPS (Sigma L4130) was dissolved in pyrogen-free water at 0.2 mg/mL, and 4 mL of this solution was added to a test tube containing 20.6 mg of RPMB-1, and incubated at 37° C. with stirring. The supernatant was collected every 30 minutes by centrifugation and the OD values at 210 nm was determined. The OD210 value was dropped from 1 to 0.6 within the first 30 minutes of incubation and remained unchanged afterwards. […] Therefore, it was assumed that 20.6 mg of LPS adsorbent added in the first test tube was saturated with LPS. Accordingly, an LPS adsorption capacity of RPMB-1 was calculated based on the OD value changes of LPS solution. Since the LPS preparation used in this experiment was not pure and contaminated by DNA and proteins, it was assumed that the final OD value of 0.4 reflected the OD value of such contaminants. Based on this assumption, it was calculated that 1 g of RPMB is capable of binding approximately 25.9 mg of LPS (Sigma L4130) using the following formula: (0.8 mg×0.4/0.6)/0.0206=25.9 mg Since the endotoxin unit of this LPS preparation is 1.1×10^6 EU/mg, it was calculated that 1 g of RPMB-1 is capable of binding 29×10^6 EU of endotoxin.
Polymixin B-conjugated resins prepared in Examples 1-7 were analyzed for their particle size distribution by the method described in Example 9 and assayed for the endotoxin-binding capacity by the method described in Example 11 to study the relationship between particle size and LPS-binding capacity. AffiPrep poplymixin B (BioRad, USA) was used as a reference.
The endotoxin-binding capacity of individual batches of endotoxin-adsorbents prepared by conjugating with 3 million units of polymixin B was compared and expressed as endotoxin units (EU) per gram weight of resin as well as LPS weight per gram resin. The weight of LPS was obtained by converting the EU values based on the EU value per mg of LPS preparation (Sigma L4130, LPS preparation from E. coli O-111, B4, by trichloroacetic acid extraction) used for this experiment.

For data set [3], the system named is autoantibody mediated, LPS-induced arthritis. In words: Autoantibody mediated, LPS-induced arthritis model. It counts as in vivo, DBA/1JNCrj mice. To be noted: experiment 2; for Severity of Arthritis (score) / Incidence of Arthritis: 10 mg/mouse oral; for Severity of Arthritis (score): average of 5 mice, maximum 16 per mouse; for Incidence of Arthritis: mice with arthritis/5; for effect on development of arthritis (in words): dose of 10 mg per mouse.

Data set [4] has the same test system. The experiment in a line: Autoantibody mediated, LPS-induced arthritis model. It counts as in vivo, DBA/1JNCrj mice. The settings on record: experiment 1, day 7; for Severity of Arthritis (score): average of 5 mice, maximum 16 per mouse; for Incidence of Arthritis: mice with arthritis/5. The text has this: The therapeutic effect of the endotoxin-adsorbent on autoimmune diseases can be determined in the mouse arthritis model as described in our previous invention, JP-A 2006-151914. Briefly, arthritis can be induced in 100% of mice by IP injection of enough amounts of anti-type II collagen monoclonal antibody cocktail (Chondrex Inc., Redmond, Wash., USA) within 3 days (Terato K et al. Induction of arthritis with monoclonal antibodies to collagen. J. Immunol. 148:2103-2108, 1992). By reducing the dose of the monoclonal antibody cocktail to 2 mg, all mice remained normal without developing arthritis. However, oral administration of 3 mg of LPS on 3 consecutive days from day 0, day 1, day 2 […] into these mice induced clinically apparent arthritis, which reached the peak on day 6-7. Furthermore, one group of mice was co-administered with indomethasin and ovoinhibitor, a protease-inhibitor purified from egg white. The combination of indomethasin and ovoinhibitor was used to increase the mucosal permeability of gastro-intestinal mucosa. In these mice, the effect of LPS was more significant, and more severe arthritis was induced by oral administration of a same dose of LPS. Using this arthritis model induced by a combination of monoclonal antibody and LPS, the therapeutic effect of the endotoxin-adsorbent can be determined. The benefit of this model is multifold: time of experimentation is short compared with an authentic collagen-induced arthritis model, the standard deviation of severity of arthritis among individual mice is much less, and the effect of the LPS-adsorbent is clearly determined.
DBA/1JNCrj mice (Japan Charles River) were divided into 5 groups (G1-G5, 5 mice per group). In order to increase the mucosal permeability, all mice received 40 μg of indomethasin (Sigma) and 2 mg of ovomucoid (Sigma) for 5 consecutive days from day −6 to −2 by the oral route. On day 0, all mice received an IV injection of 0.2 mL of arthritogenic monoclonal antibody cocktail (10 mg/mL). Endotoxin derived from E. coli O-111 (Phenol extracted LPS, Sigma) was dissolved in PBS at 7.5 mg/mL, and 0.2 mL of this solution was administered into G1-G4 mice by the oral route for 3 consecutive days from day 0 to 2. Endotoxin-adsorbent, RPMB-1, was suspended in distilled water at 100 mg/mL, and deaerated by a vacuum pump to keep the particles in uniform suspension by preventing the aggregation of the particles. The RPMB-1 suspension was administered to mice at doses of 0.125 mL (G2), 0.25 mL (G3) and 0.5 mL (G4) twice a day for 4 consecutive days from day 0 to 3 after LPS administration. G1 received 0.25 mL of water alone. Mice in G5, a positive control of arthritis, received IP injection of 0.1 mL of LPS solution (0.5 mg/mL in PBS) on day 3.
Severity of arthritis was scored by 5 grades, 0: normal without any swelling, 1: clinically apparent swelling of one digit, 2: moderate redness and swelling of more than 2 digits or moderate redness and swelling of the entire paw, 3: severe redness and swelling of the entire paws, and 4: maximum inflamed limb with involvement of multiple joints. The sum of the arthritis score (maximum 16 per mouse) of individual animals was calculated. The effect of the endotoxin-adsorbent was calculated based on the average score of 5 mice using the following equation: Suppression of arthritis(%)=(1−Average score of test group/Average score of control group)×100
Since the arthritis scores reached a maximum on day 7, the effect of the endotoxin-adsorbent was calculated using the scores on day 7. The suppression of arthritis by RPMB prepared in EXAMPLE 2 at 25 mg, 50 mg and 100 mg per mouse by oral administration is shown in Table 3.

Data set [5] is classed as binding, E. coli O-111. The settings on record: for LPS Activity Remaining, 10 mm / LPS Activity Remaining, 20 mm / LPS Activity Remaining, Before: 1 mL LPS 5 μg/mL; for LPS Activity Remaining, 10 mm / LPS Activity Remaining, 20 mm: 37° C.; for LPS Activity Remaining, 10 mm: 10 minutes after adding resin; for LPS Activity Remaining, 20 mm: 20 minutes after adding resin; for LPS Activity Remaining, Before: supernatant before adding resin (baseline). On the procedure: Endotoxin was assayed by an end point colorimetric assay method using Endospecy-ES24S kit (Seikagaku Kogyo, Japan). Lipopolysaccharide (LPS) from E. coli O-111 (Sigma L4130) was dissolved in pyrogen-free water at 5 μg/mL. One mL of this LPS solution was mixed with 50 μg and 100 μg of RPMB-1, and 100 μg of polymixin B-unconjugated resin (control) and incubated at 37° C. with stirring. Endotoxin levels were determined in the supernatant before, 10 and 20 minutes after adding the resins.

Results on seven substances are retold here after patent publication US8287911B2, “Endotoxin adsorbent for the prevention and treatment of autoimmune diseases” (Chondrex Inc., priority 2006, dated 2012).

Several values for one entry are separate records, joined by “and”; a condition that tells them apart may be missing. Equal entries are not always repeated. Where two headings read alike, the source gives them in different places.

As for “Weakly Acidic Cation-Exchange Resin-Polymixin B Conjugate [1M/300]”, in data set [1], the “50% Particle Size” value came out at 29 μm. Also, in data set [2], the “Endotoxin-Binding capacity (LP5 mg/g*)” value amounted to 120 mg/g and the “Endotoxin-Binding Capacity” value was 136.3 × 10^6 EU/g. Besides, in data set [3], the “Severity of Arthritis (score)” value amounted to 0 ± 0 score, the “Incidence of Arthritis” value is listed as 0/5 and the “effect on development of arthritis (in words)” value (from here on “effect on development”) was “suppressed the development of arthritis almost completely”.

Take “Epoxyacryl Resin-Polymixin B Conjugate [RPMB-1]”: in data set [1], the “50% Particle Size” value was determined as 32 μm. Besides, in data set [4] (25 mg/mouse oral), the “Severity of Arthritis (score)” value is 9 score and 6.4 ± 1.8 score; the “Incidence of Arthritis” value was 4 out of 5 and 4/5. Besides, in data set [4] (50 mg/mouse oral), the “Severity of Arthritis (score)” value is 2 score and 2 ± 2.8 score; the “Incidence of Arthritis” value is 2 out of 5 and 2/5. Further, in data set [4] (100 mg/mouse oral), the “Severity of Arthritis (score)” value came out at 0 ± 0 score; the “Incidence of Arthritis” value was “None of the five mice and 0/5”. Further, in data set [2] (20.5 mg fresh resin added to the supernatant, reduced from 0.6), the “OD value of supernatant after adding fresh resin” value was found to be 0.4. Further, the “OD210 value of supernatant” value in data set [2] (20.6 mg resin in 4 mL LPS 0.2 mg/mL, 37° C., within first 30 minutes, dropped from 1) was found to be 0.6. In addition, in data set [2], the “Endotoxin-Binding capacity (LP5 mg/g*)” value stood at 26.5 mg/g and the “Endotoxin-Binding Capacity” value is 29 × 10^6 EU/g. Besides, the “endotoxin bound by 1 g of resin” value in data set [2] (per 1 g resin, calculated with 1.1×10^6 EU/mg LPS) is reported as 29×10^6 EU. Moreover, in data set [5] (resin amount 50 μg), the “LPS Activity Remaining, 10 mm” value was determined as 2403 EU/mL; the “LPS Activity Remaining, 20 mm” value was determined as 1207 EU/mL; the “LPS Activity Remaining, Before” value came out at 5632 EU/mL. In data set [5] (resin amount 100 μg), the “LPS Activity Remaining, 10 mm” value was determined as 1004 EU/mL; the “LPS Activity Remaining, 20 mm” value came to 170 EU/mL; the “LPS Activity Remaining, Before” value was 5526 EU/mL. Also, the “LPS adsorption (in words)” value in data set [5] (versus polymixin B-unconjugated control resin) was “specifically adsorbed”.

Take “Weakly Acidic Cation-Exchange Resin-Polymixin B Conjugate [1/300]”: the “50% Particle Size” value in data set [1] amounted to 400 μm. For the same substance, in data set [2], the “Endotoxin-Binding capacity (LP5 mg/g*)” value is reported as 6.7 mg/g and the “Endotoxin-Binding Capacity” value is listed as 7.7 × 10^6 EU/g.

For “Weakly Acidic Cation-Exchange Resin-Polymixin B Conjugate [4M/300]”, the “50% Particle Size” value in data set [1] was determined as 26 μm. For the same substance, in data set [2], the “Endotoxin-Binding capacity (LP5 mg/g*)” value amounted to 30 mg/g and the “Endotoxin-Binding Capacity” value was 29.5 × 10^6 EU/g. Besides, in data set [3], the “Severity of Arthritis (score)” value is on record as 0.8 ± 1.8 score, the “Incidence of Arthritis” value is 1/5 and the “effect on development” value was “suppressed the development of arthritis almost completely”.

Take “Weakly Acidic Cation-Exchange Resin-Polymixin B Conjugate [4/300]”: the “50% Particle Size” value in data set [1] is 400 μm. Besides, in data set [2], the “Endotoxin-Binding capacity (LP5 mg/g*)” value worked out at 6.3 mg/g and the “Endotoxin-Binding Capacity” value is recorded as 7.2 × 10^6 EU/g.

Consider “Epoxyacryl Resin-Polymixin B Conjugate [RPMB-2]”, for which the “50% Particle Size” value in data set [1] is listed as 32 μm. Also, in data set [2], the “Endotoxin-Binding capacity (LP5 mg/g*)” value was found to be 105 mg/g and the “Endotoxin-Binding Capacity” value is 120 × 10^6 EU/g. In data set [3], the “Severity of Arthritis (score)” value is recorded as 0 ± 0 score, the “Incidence of Arthritis” value is recorded as 0/5 and the “effect on development” value is “suppressed the development of arthritis almost completely”.

With “Epoxyacryl Resin-Polymixin B Conjugate [RPMB]”, in data set [1] (1006 particles analyzed), the “Distribution of Particle Size: 10% Diameter” value is listed as 160 (μm), the “Distribution of Particle Size: 90% Diameter” value is given as 266 (μm), the “Distribution of Particle Size: Average Diameter” value was 197 (μm) and the “content of small particles not more than 5 μm in a diameter” value was 0%. For the same substance, the “50% Particle Size” value in data set [1] is given as 213 μm. Besides, in data set [2], the “Endotoxin-Binding capacity (LP5 mg/g*)” value worked out at 17.5 mg/g and the “Endotoxin-Binding Capacity” value is on record as 20 × 10^6 EU/g. Further, in data set [2] (per 1 g resin, calculated from OD value changes, (0.8 mg×0.4/0.6)/0.0206), the “LPS bound by 1 g of resin” value is on record as “approximately 25.9 mg”.
